Measured values published in US7109329B2, “Neurologically active compounds and compounds with multiple activities” (priority 1988, dated 2006).
Like-named read-outs stand apart in the source and are kept apart here.

Tests used:
[1] = Activities and properties of the compounds (Table III codes listed as Specific Properties in Table IV)
Text: Certain of the compounds produce a profound hypothermia, but without anesthetizing. […] Table III, following, sets forth a list of the other properties of these guanidino compounds, which arise from their alpha-adrenergic agonist activity, combined with any inherent activity of the reactants chosen to achieve the final compound.
Except for items numbered 22 and 24–28 in Table III, substantially all of the guanidino compounds of this invention, as a result of their structure-activity relationship, are potent with respect to all of the above activities. However, as would be expected, various compounds have different, higher levels of, activities and properties which are listed as “Specific Properties”, with the Compounds numbered, in Table IV, below, according to the numbers in Tables I and II.

[2] = Reversal of guanabenz-induced anesthesia and hypothermia by antagonists; type: in vivo, rat
Protocol: The effect can also be partially reversed, or reversed in stages, if desired, by administering several smaller aliquots of the antagonist.
Room temperature was 21.5° C. […] The control rats, injected only with the carrier dextrose solution, maintained a relatively constant temperature during the entire test period under identical conditions of the test.

[3] = codes of Table III, higher levels of activity
[4] = guanabenz-treated rats (4 mg I.P.), Yohimbine 10 mg I.P.
[5] = six anesthetized rats also injected with aminophylline, then tolazoline

Compound	Specific Properties [1, 3]	further results
1,2-Bis(theophylline-7-acetamido)-ethane [Compound 164]		Specific Properties [1]: 3, 15, anesthesia antagonist
2-(2,6-Diisopropylanilino)-2-methyleneimidazole [Compound 101]		Specific Properties ([1]; codes of Table III, […]): adrenergic antagonist
2-(3,4,5-Trimethoxybenzylidineamino)-2-methylbenzimidazole [Compound 100]	adrenergic antagonist	
3-(Guanidinoacetoxy)-estrone [Compound 148]		Specific Properties [1]: 27
3-(PGE2carbonyl)-3-estrone ester [Compound 156]		Specific Properties [1]: 27 (some agonist activity)
4-4′-(1,2-Diethyl-1,2-ethenediyl)-4-guanidinoacetoxyphenyl-4′-(6-hydroxy-2,5,7,8-tetramethylchroman-2-carbonyl)-phenol ester [Compound 143]		Specific Properties ([1]; codes of Table III, […]): 27 (Estrogenic antagonist (breast cancer treatment))
4-(PGE2carbonylphenyl)-4-4′(1,2-diethyl-1,2-ethenediyl)-4-phenol [Compound 157]		Specific Properties ([1]; codes of Table III, […]): 27 (some agonist activity)
5-Methoxy-2-methyl-3-indoleacetamidoguanidine [Compound 103]		Specific Properties ([1]; codes of Table III, […]): 5
7-(3,5-Dichorophenylhydrazido)-7-acetyltheophylline [Compound 102]		Specific Properties ([1]; codes of Table III, […]): 3, 14, 16, 17 antagonist
17-(PGE1carbonyl)-17-cyproterone ester [Compound 154]		Specific Properties ([1]; codes of Table III, […]): 26 (Androgenic antagonist)
17-[2-6-(N-1-Aminophthalazino-1-amidopropionyl)-2,5,7,8-tetramethylchroman-2-carbonyl]-17-cyproterone ester [Compound 140]	26 (ESP Topical to treat male pattern	
Cl.Cn1c(=O)c2c(ncn2CC(=O)Nc2nc(N)nc(NC(=O)C[N+](C)(C)C)n2)n(C)c1=O [Compound 31, 2-(Amino)-4-(1-carboxamido-N,N,N-trimethylmethaniminium)-6-(theophylline-7-acetamido)-1,3,5-s-triazine]	2, 3, 15, cholinergic	
C[N+](C)(C)CCOC(=O)CNC(=N)N [Compound 32]		Specific Properties ([1]; codes of Table III, […]): 1, 15, cholinergic
N=C(N)NNC(=O)Cc1c[nH]c2ccc(O)cc12 [Compound 38, 5-Hydroxyindole-3-acetamidoguanidine]	5	
COc1cc(CC(=O)Oc2ccc3[nH]cc(CCN)c3c2)cc(OC)c1OC [Compound 74, 5-(3,4,5-Trimethoxyphenylacetoxy)-tryptamine]		Specific Properties ([1]; codes of Table III, […]): 5
Cn1c(=O)c2c(ncn2CC(=O)NCc2nc3ccccc3[nH]2)n(C)c1=O [Compound 96, 2-(Theophylline-7-acetamido)-2-methylbenzimidazole]	3, adrenergic antagonist, 12	antagonism of both the hypothermic and anesthetic effects of guanidino compounds ([2]; rat, in vivo): reverse both the hypothermic and anesthetic effects
COc1cc(N=Cc2ncc[nH]2)cc(OC)c1OC [Compound 98]	adrenergic antagonist	
N=C(N)c1ccc(C(=O)NC(=O)Cc2c(Cl)cccc2Cl)cc1 [Compound 99, 4-(Amidino)-N-(2,6-dichlorophenylacetyl)-benzamide]	adrenergic antagonist	
COc1cc(CNC(=O)CNC(=N)N)ccc1O [Compound 104, N-(4-Hydroxy-3-methoxybenzyl)-guanidinoacetamide]	2 (Antispasticity and muscle relaxant)	
CC/C(=C(/CC)c1ccc(OC(=O)CNC(=N)N)cc1)c1ccc(OC(=O)CNC(=N)N)cc1 [Compound 127, 4,4′-(1,2-Diethyl-1,2-ethenediyl)bis-phenoldiguanidinoacetate ester]	27 (Estrogenic antagonist (breast cancer treatment))	
CC/C(=C(/CC)c1ccc(OC(=O)C2(C)CCc3c(C)c(OC(=O)CNC(=N)N)c(C)c(C)c3O2)cc1)c1ccc(O)cc1 (stereo not shown) [Compound 128, 2-[4,4′-(1,2-Diethyl-1,2-ethenediyl)phenol]-6-(guanidinoacetoxy)-2,5,7,8-tetramethylchroman-2-carbonyl-2-phenol ester]	27 (Estrogenic antagonist (breast cancer treatment))	
CC(=O)[C@@]1(OC(=O)CNC(=N)N)CCC2C3C=C(Cl)C4=CC(=O)C5C[C@@H]5C4(C)C3CCC21C (stereo partly shown) [Compound 129, 6-Chloro-1,2,Dihydro-17-guanidinoacetoxy-3′H-cyclopropa[1,2]pregna-1,4,6-triene-3,20-dione]		Specific Properties ([1]; codes of Table III, […]): 26 (Androgenic antagonist)

Compound	Specific Properties [1, 3]	further results
Cc1c(C)c2c(c(C)c1O)CCC(C)(C(=O)Nc1ccc(C(=O)NNC(=N)N)cc1)O2 (stereo not shown) [Compound 135, 4-N-(G-Hydroxy-2,5,7,8-tetramethylchroman-2-carboxamido)-4-benzamidoguanidine]	9–15	
CC1(N=Cc2c(Cl)cccc2Cl)N=c2ccccc2=N1 [Compound 162, 2-(2,6-Dichlorobenzylideneamino)-2-methyl-benzimidazole]	14, 17 adrenergic antagonist, 22, 23	
CC(C)c1cccc(C(C)C)c1C=NCC(=N)N [Compound 163, 2,6-Diisopropylbenzylideneaminomethylamidine]	14, 17, adrenergic antagonist, 22, 23	
CCCCCC(O)/C=C/C1C(O)CC(=O)[C@@H]1CCCCCCCC(=O)OCC(O)COC(=O)CCCCCCC[C@H]1C(=O)CC(O)C1/C=C/C(O)CCCCC (stereo partly shown) [Compound 170, 1,3-Di-PGE1-2-propanol-ester]	8, 9, 12, Vasodilator	
CC(=O)[C@@]1(OC(=O)CNC(=N)N)CCC2C3C=C(C)C4=CC(=O)CCC4(C)C3CCC21C (stereo partly shown) [Compound 184, 17-(Guanidinoacetoxy)-megostrol]	27, Progestin, androgenic	
CC(=O)[C@@]1(OC(=O)CNC(=N)N)CCC2C3CC(C)C4=CC(=O)CCC4(C)C3CCC21C (stereo partly shown) [Compound 185, 17-(Guanidinoacetoxy)-medroxyprogesterone]	27, Progestin, androgenic	
CC(=O)[C@@]1(OC(=O)CNC(=N)N)CCC2C3CCC4=CC(=O)CCC4(C)C3CCC21C (stereo partly shown) [Compound 186, 17-(Guanidinoacetoxy)-progesterone]	1927, Progestin, androgenic	
CC/C(=C(\c1ccccc1)c1ccc(OC(=O)CNC(=N)N)cc1)c1ccccc1 [Compound 187, [Z]-2-[4-(1,2-Diphenyl-1-butenyl)-phenoxy]-guanidineacetate ester]	27, Progestin	
N=C(N)c1ccc(OCCCCCOc2ccc(C(=N)N)cc2)cc1 [Compound 192, 4,4′-[Pentanediylbis(oxy)]bis-benzenecarboximidamide, reference compound]	1, 2, 8–10, 15, 29 Adrenergic antagonist	
[H]/N=C(\N/C(=N/[H])Nc1ccc(Cl)cc1)NC(C)C [Compound 217, reference compound]	1, 4, 6–9, 16, 17, 19 antimalarial	
N=C(N)c1ccc(C(=O)NC(c2ccccc2)c2ccccc2)cc1 [Compound 223, N-(Diphenylmethyl)-4-(amidino)-Benzamide]	1, 2, 4, 6, 9, 10, 14, 15, 17, 23, 29 Adrenergic	
N=C(N)c1ccc(C(=O)NC(=O)CCCCC2SCC3NC(=O)NC32)cc1 (stereo not shown) [Compound 233, N-(Hexahydro-2-oxo-1H-thieno[3,4-d]-imidazole-4-pentanoyl)-4-amidinobenzamide]	1, 2, 4, 6, 9, 10, 14, 15, 17, 23, 29 Antialopecia,	
C=CCN1CC[C@]23c4c5ccc(O)c4O[C@H]2C(=O)CC[C@@]3(O)[C@H]1C5 [Naloxone]		antagonism of both the hypothermic and anesthetic effects of guanidino compounds ([2]; rat, in vivo): not found to be a useful antagonist
COC(=O)[C@@H]1[C@H]2C[C@H]3c4[nH]c5ccccc5c4CCN3C[C@@H]2CC[C@@H]1O [Yohimbine]		effect on guanabenz-induced anesthesia [2, 4]: brought out of anesthesia; effect on guanabenz-induced hypothermia (body temperature) [2, 4]: hypothermia was simultaneously reversed; antagonism of both the hypothermic and anesthetic effects of guanidino compounds ([2]; rat, in vivo): reverse both the hypothermic and anesthetic effects
c1ccc(CC2=NCCN2)cc1 [tolazoline]		antagonism of the hypothermic effect substantially without reducing the anesthetized condition ([2]; rat, in vivo): effect-specific alpha2-antagonists; reversal of anesthesia-hypothermia induced by guanabenz [2, 5]: completely reversed; time until anesthesia-hypothermia reversed and body temperature normal [2, 5]: ≤ 25 min
Bis(3,17-PGE2carbonyl)-estradiole ester [Compound 158]	27 (Estrogenic antagonist (breast cancer treatment))	
Bis(3,17-guanidinoacetoxy)estradiaole [Compound 147]	27 (Estrogenic antagonist (breast cancer treatment))	
Guanidinamidocarbonyl-1-cholinepentanoic acid ester [Compound 167]	Adrenergic, cholinergic, 22, 23	
N-(2,6-Dichlorbenzylidene)-3-(5-hydroxyindole)ethylamine [Compound 78]		Specific Properties ([1]; codes of Table III, […]): 5
N-(PGE1carboxamido)-1-aminophthalazine [Compound 152]		Specific Properties ([1]; codes of Table III, […]): 6–11 (anti-impotence)
N-(PGE1carboxamido)-guanidine [Compound 151]		Specific Properties ([1]; codes of Table III, […]): 6–11 (anti-impotence)
N-[(6-PGE1carbonyl)-2,5,7,8-tetramethylchroman-2-carboxamido]-1-aminophthlazine [Compound 153]		Specific Properties ([1]; codes of Table III, […]): 6–11 (anti-impotence)
